Literature values as cited in patent US20140348954A1, “PRODUCT COMPRISING GLUCOMANNAN AND CHITOSAN FOR THE TREATMENT OF GASTROESOPHAGEAL REFLUX DISEASE” (DICOFARM S.P.A., priority 2012, published 2014).

Molecular target: transient receptor potential cation channel subfamily V member 1 (TrpV1) (Homo sapiens, UniProt Q8NER1)
Conditions: inflamed human esophagus due to GERD

Chain of transient receptor potential cation channel subfamily V member 1 (TrpV1) (Q8NER1 whole entry): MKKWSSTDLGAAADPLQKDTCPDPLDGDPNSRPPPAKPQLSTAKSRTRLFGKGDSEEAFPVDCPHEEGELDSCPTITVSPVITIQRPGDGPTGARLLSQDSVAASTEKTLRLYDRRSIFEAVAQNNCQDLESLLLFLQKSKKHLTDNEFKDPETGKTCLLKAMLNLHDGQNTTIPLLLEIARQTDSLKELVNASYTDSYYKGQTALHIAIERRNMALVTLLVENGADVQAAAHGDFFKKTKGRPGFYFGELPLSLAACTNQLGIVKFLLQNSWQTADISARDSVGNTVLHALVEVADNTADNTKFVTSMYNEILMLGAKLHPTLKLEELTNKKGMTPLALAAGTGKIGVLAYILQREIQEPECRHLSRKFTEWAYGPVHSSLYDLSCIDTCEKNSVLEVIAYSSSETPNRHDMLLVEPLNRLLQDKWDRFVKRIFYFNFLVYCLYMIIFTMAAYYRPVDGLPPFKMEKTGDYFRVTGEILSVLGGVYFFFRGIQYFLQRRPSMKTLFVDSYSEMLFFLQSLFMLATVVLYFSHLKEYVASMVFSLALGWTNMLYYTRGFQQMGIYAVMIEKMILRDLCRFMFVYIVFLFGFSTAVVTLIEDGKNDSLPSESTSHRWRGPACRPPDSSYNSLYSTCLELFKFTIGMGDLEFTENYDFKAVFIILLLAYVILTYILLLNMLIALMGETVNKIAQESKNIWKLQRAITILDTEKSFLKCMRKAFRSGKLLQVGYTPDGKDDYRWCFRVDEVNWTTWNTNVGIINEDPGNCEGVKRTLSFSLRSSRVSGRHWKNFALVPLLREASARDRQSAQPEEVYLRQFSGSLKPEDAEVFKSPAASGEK

Structure (SMILES): COc1cc(/C=C/C(=O)CC(=O)/C=C/c2ccc(O)c(OC)c2)ccc1O [curcumin]
- action on TrpV1: typical activator
